# US20110142884A1, “Materials and Methods for Making Improved Micelle Compositions” (The Board of Trustees of the University of Illinois, priority 2002, published 2011)
# What was measured:
# [1] = Circular dichroism (CD) spectral analysis of peptide conformation, % helicity; type: physicochemical
# Protocol: According to this example, circular dichroism (CD) experiments were performed to determine the conformation changes of VIP in phospholipid micelles, pH and temperature changes, and in aqueous solutions. CD spectra were recorded on a JASCO J-700 spectropolarimeter using a fused quartz cell of 1 cm pathlength. Spectra in 0.15 N saline (pH 6.8) and 5 mM Hepes buffer (pH 7.4) were measured at a peptide concentration of 4 μM and at a lipid concentration of 1 mM. The effects of CaM, pH (6.8 or 7.4) and temperature (25° C. or 37° C.) on VIP conformation were also studied. The conformation of VIP fragments was likewise studied. All measurements were carried out at room temperature (˜25° C.) unless otherwise noted. A bandwidth of 1.0 nm and a step resolution of 0.5 nm were used to collect an average of 9 accumulations/sample at the […] (200-260 nm wavelength). The peptide spectra shown have the background buffer scans, and empty vesicle scans subtracted and were smoothed using the noise reduction function. The temperature during spectral analysis was maintained by using a circulating water bath attached to a jacket surrounding the fused quartz CD cell. The percent helical characterization of VIP was determined by a method of Haghjoo et al., Peptide Research 9 (6):327-331 (1996): % helicity=[−(θ208+4000)/29 000]*100 and are reported in table 1.
# According to the example, CD was used to determine the conformation of VIP in saline, Hepes buffer and phospholipid micelles at room temperature and at 37° C. The CD spectra analysis was performed after 13 μg of human VIP incubated with 1 ml PEG-DSPE (1 μmol) micelles for 30 min at room temperature as determined by preliminary studies. A bandwidth of 1.0 nm and a step resolution of 0.5 nm were used to collect an average of 9 accumulations/sample at near UV range (200-260 nm). The temperature was maintained during spectral analysis by a circulating water bath attached to a jacket surrounding the fused quartz CD cell. The evaluation of VIP molecule conformation in SSM by using circular dichroism was successful because the distortion caused by spherical particles was eliminate due to the small size and univesicular structure of the SSM. […] The phospholipid micelles were ideal in our study of VIP conformation since it provided a hydrophobic core similar to the phospholipid bilayer of the SSL. Moreover, both the negative charge, and the hydrophilic layer provided by the PEG mimic the conditions of our SSL and make it possible to infer the VIP conformational results.
# According to this example, the method of example 4 was repeated to determine the conformation of VIP in saline and phospholipid micelles plus calmodulin (CaM). CD spectra measurements were performed after 13 μg/ml of VIP was incubated with 1.0 μmol/ml of phospholipid micelles for 30 min followed by 10^−10 M CaM incubated with VIP in phospholipid micelles for 2 h at 4° C. (conjugation paper). A bandwidth of 1.0 nm and a step resolution of 0.5 nm were used to collect the average of 9 accumulations/sample at near UV range (200-260 nm).
# According to this example the method of example 4 was repeated to determine the conformation of VIP fragments in saline and phospholipid micelles. CD spectra measurements were performed after incubation of VIP fragments with phospholipid micelles, at a molar concentration equivalent to VIP (i.e. 9 μg/ml for VIP10-28 fragment and 6 μg/ml for VIP1-12 fragment), for 30 min. A bandwidth of 1.0 nm and a step resolution of 0.5 nm were used to collect the average of 9 accumulations/sample at near UV range (200-260 nm). Specifically, CD spectra of human VIP fragment (1-12) and (10-28) in the presence of phospholipid micelles are shown in FIG. 5. […] These effects correlate well with the % helicity of VIP fragments determined in saline and in the presence of phospholipids (Table 1). […]
# [2] = system: mice with collagen-induced arthritis (CIA); assay: Collagen induced arthritis (CIA) in mice; type: in vivo; details: for hind paw thickness (PT) increase: tail vein
# Protocol: SSM were prepared as described above in previous examples and by Onyuksel et al. (1999). VIP (1.0 nmol) was incubated with SSM for 2 h at 25° C. Size of VIP-SSM was determined by dynamic light-scattering. The effects of dilution on VIP-SSM were determined by size exclusion chromatography (SEC). Effects of VIP-SSM (1.0 nmol) and VIP in buffer (1.0 nmol and 5.0 nmol) were evaluated in mice with CIA treated on day 22 or 34 post-CIA induction. Clinical arthritis score (CAS) and hind paw thickness (PT) were recorded until day 45 post induction.
# VIP, VIP-SSM (each, 0.5, 1.0 & 5.0 nmol), empty micelles, and buffer were injected into the tail vein on day 22 or day 34 post-CIA induction. Clinical arthritis score (CAS) and hind paw thickness (PT) were recorded until day 45 post-CIA induction. Systemic arterial pressure (SAP) was recorded by tail cuff in restrained mice. […] CAS reductions were similar to PT after treatment with α-helix VIP- and aqueous VIP-treated mice.
# [3] = system: mice with collagen-induced arthritis (CIA); details: repeated intraperitoneal administration, 5.0 nmol, Delgado et al. 2001; cited from earlier work
# man = details: infusion in man for 10 hours; cited from earlier work
substance,measurement,setting,value
vasoactive intestinal peptide [VIP],Conformation from CD spectrum in the presence of phospholipid micelles (SSM),"[1]; phospholipid micelles (SSM), room temperature",predominantly α-helix conformation
same,% Helicity (in the presence of) Phospholipids,[1]; 37° C.,67%
same,% Helicity (in the presence of) Phospholipids,[1]; room temperature,27%
same,% Helicity (in the presence of) Saline,"[1]; saline, 37° C.",2%
same,% Helicity (in the presence of) Saline,"[1]; saline, room temperature",5%
same,Conformation from CD spectrum in saline,"[1]; saline, room temperature",primarily a random coil structure
same,hind paw thickness (PT) increase,[2]; 0.5 nmol dose,85.63±6.20%
same,hind paw thickness (PT) increase,[2]; 1.0 nmol dose,78.66±6.44%
same,progression of CIA (PT and CAS data),"[2]; 1.0 nmol, treated on day 22",78.09%
same,progression of CIA (PT and CAS data),"[2]; 1.0 nmol, treated on day 34",96.55%
same,hind paw thickness (PT) increase,[2]; 5.0 nmol dose,46.69±6.92%
same,progression of CIA (PT and CAS data),"[2]; 5.0 nmol, treated on day 22",56.37%
same,progression of CIA (PT and CAS data),"[2]; 5.0 nmol, treated on day 34",69.71%
same,effect on CIA,[3],ameliorates CIA
same,increase of forearm blood flow,man,270%
same,reduction of total peripheral resistance,man,30%
